Results on one compound are retold here after ChEMBL document CHEMBL3217743, “Reduction of acyl glucuronidation in a series of acidic 11-hydroxysteroid dehydrogenase type 1 (11-HSD1) inhibitors: the discovery of AZD6925” (Medchemcomm, 2012).

Each structure is given as a SMILES string. Active and inactive are the calls of the source. No cut-off for these calls is given here. Where only a bound is given, the exact number is not on record here.

Series [1] has as its target Voltage-gated inwardly rectifying potassium channel KCNH2 (Homo sapiens, UniProt Q12809). Kind of series: Inhibition of human ERG.
Series [2] concerns the target T1, Glucocorticoid receptor (Homo sapiens) (UniProt P04150).
T1 sequence (whole entry): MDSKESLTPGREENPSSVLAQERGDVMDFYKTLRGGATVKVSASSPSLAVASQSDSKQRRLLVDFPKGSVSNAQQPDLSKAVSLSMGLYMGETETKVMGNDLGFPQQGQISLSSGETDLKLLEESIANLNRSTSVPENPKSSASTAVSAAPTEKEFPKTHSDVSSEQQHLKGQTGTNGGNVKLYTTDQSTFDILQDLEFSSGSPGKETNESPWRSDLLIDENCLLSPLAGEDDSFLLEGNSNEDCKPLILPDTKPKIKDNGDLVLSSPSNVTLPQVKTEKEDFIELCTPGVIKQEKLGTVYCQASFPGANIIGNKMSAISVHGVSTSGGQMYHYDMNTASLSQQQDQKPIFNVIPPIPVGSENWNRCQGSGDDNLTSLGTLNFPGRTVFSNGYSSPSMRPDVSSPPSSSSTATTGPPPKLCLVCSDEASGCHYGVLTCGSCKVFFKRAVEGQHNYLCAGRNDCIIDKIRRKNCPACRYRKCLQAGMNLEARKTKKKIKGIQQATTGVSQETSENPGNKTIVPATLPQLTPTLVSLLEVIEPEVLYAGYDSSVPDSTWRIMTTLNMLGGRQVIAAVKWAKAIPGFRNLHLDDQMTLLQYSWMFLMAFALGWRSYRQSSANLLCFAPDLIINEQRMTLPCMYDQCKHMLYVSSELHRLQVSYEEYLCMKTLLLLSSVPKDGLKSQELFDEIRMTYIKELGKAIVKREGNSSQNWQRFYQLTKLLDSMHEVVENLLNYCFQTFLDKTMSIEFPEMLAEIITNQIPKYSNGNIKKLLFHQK
Kind of series: Activity at glucocorticoid receptor (unknown origin).

In the next series the target is CYP2D6 (Homo sapiens, UniProt P10635). Kind of series: Inhibition of CYP2D6 (unknown origin) at 10 uM relative to control. Format: ADME.
CYP2D6, sequence (P10635 whole entry): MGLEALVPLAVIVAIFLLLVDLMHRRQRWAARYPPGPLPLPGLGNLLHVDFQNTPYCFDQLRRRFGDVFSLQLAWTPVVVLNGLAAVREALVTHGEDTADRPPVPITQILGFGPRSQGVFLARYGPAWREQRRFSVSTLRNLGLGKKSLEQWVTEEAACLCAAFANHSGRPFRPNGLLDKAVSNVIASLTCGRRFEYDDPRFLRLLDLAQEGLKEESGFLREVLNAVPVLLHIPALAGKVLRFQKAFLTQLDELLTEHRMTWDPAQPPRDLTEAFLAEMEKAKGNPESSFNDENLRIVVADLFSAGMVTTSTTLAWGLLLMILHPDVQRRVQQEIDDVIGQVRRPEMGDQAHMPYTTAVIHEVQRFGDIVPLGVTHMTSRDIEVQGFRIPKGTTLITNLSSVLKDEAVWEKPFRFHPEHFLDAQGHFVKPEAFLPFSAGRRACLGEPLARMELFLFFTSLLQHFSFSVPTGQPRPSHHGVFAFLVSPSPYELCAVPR
For the next series, the system named is Mus musculus. Put plainly: Ex vivo inhibition of 11beta-HSD1-mediated conversion of [3H]-cortisone to [3H]-cortisol in C57Bl6J mouse adipose tissue at 30 mg/kg, po after 1 hr by scintillation counting analysis relative to control. Format: functional.
Series [3] addresses 11-beta-hydroxysteroid dehydrogenase 1 (Rattus norvegicus, UniProt P16232). Kind of series: Inhibition of N-terminal 6-His-tagged rat full length 11beta-HSD1 assessed as conversion of cortisone to cortisol after 25 mins by HTRF assay.
For the next series, the system named is Salmonella typhimurium. Kind of series: Genotoxicity in Salmonella typhimurium by Ames test. The settings on record: salmonella enterica subsp. enterica serovar typhimurium. It counts as toxicity, organism-based. In general terms: The Ames test uses bacterial strains that need an amino acid and regain growth without it when mutated back.
Series [4] can be described thus: Half life in dog at 1 to 3 mg/kg, iv. Format: ADME, organism-based, Canis lupus familiaris. Details: dose 1-3 mg/kg, route intravenous. The settings on record: in vivo.
The target in a further series is CYP2C19 (Homo sapiens, UniProt P33261). Put plainly: Inhibition of CYP2C19 (unknown origin) at 10 uM relative to control. Format: ADME.
CYP2C19, sequence (P33261 whole entry): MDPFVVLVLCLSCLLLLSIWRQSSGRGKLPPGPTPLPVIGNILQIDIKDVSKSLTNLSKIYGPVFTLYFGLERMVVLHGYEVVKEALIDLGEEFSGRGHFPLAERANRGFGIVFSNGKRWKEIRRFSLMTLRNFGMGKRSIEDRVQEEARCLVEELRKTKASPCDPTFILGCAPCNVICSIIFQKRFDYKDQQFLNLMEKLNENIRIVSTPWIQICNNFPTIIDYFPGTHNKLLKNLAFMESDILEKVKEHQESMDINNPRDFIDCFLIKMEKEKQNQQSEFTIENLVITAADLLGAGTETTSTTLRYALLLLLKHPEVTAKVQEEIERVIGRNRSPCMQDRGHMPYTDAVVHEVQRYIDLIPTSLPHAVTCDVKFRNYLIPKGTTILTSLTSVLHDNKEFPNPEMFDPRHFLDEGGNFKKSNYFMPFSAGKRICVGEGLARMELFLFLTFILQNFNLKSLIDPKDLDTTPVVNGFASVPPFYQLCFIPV
Series [5] is described as follows: Volume of distribution at steady state in dog at 1 to 3 mg/kg. Format: ADME, organism-based, Canis lupus familiaris. Details: dose 1-3 mg/kg. The settings on record: in vivo, read-out: Vdss.
The nature of series [6]: Octanol-buffer partition coefficient, log D of the compound at pH 7.4 after 30 mins by shake-flask method. Format: physicochemical.
Series [7] is described as follows: Inhibition of N-terminal 6-His-tagged cynomolgus monkey full length 11beta-HSD1 assessed as conversion of cortisone to cortisol after 25 mins by HTRF assay. Also on record: species or system Macaca fascicularis. A general note: TR-FRET usually uses a lanthanide donor and a delayed reading to cut background.
The target in series [8] is T2, Mineralocorticoid receptor (Homo sapiens) (UniProt P08235).
T2 sequence (whole entry): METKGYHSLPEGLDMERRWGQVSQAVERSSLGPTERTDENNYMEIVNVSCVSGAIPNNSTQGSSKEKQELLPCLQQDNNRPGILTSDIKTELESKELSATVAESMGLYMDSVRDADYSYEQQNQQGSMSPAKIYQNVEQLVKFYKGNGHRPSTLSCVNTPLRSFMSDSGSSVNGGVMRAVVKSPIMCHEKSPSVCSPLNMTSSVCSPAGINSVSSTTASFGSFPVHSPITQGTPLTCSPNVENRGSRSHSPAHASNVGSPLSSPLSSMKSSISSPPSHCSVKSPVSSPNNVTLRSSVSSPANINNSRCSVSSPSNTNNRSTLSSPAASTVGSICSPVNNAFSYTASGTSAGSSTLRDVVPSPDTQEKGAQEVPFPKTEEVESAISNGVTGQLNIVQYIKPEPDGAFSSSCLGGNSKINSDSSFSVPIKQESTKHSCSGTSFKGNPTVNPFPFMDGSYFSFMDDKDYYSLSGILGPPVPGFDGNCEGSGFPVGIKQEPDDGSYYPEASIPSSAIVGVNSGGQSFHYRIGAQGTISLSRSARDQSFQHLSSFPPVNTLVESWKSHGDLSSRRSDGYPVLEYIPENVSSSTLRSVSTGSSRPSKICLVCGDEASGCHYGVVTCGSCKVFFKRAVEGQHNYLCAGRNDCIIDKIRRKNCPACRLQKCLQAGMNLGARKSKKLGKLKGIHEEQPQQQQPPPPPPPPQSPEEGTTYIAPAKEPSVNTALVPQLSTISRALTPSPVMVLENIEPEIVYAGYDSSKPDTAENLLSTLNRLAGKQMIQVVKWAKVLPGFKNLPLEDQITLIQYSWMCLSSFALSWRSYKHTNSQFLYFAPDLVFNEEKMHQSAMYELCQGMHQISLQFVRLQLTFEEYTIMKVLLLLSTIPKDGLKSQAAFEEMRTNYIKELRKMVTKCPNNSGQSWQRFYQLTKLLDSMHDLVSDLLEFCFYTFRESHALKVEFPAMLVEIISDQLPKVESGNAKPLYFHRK
Kind of series: Activity at mineralocorticoid receptor (unknown origin).

Series [9] is described as follows: Drug metabolism in human hepatocytes assessed as compound remaining by LC-MS/MS analysis. It counts as ADME, cell-based, Hepatocyte.
Series [10] in a line: Half life in mouse at 1 to 3 mg/kg, iv. Details: dose 1-3 mg/kg, route intravenous. The settings on record: in vivo. Format: ADME, organism-based.
The nature of series [11]: Apparent permeability from apical to basolateral side in MDCK cells at 10 uM. The settings on record: dog. Format: ADME, cell-based, Canis lupus familiaris.
The target of series [12] is T3, 17-beta-hydroxysteroid dehydrogenase type 3 (Homo sapiens, UniProt P37058).
T3 sequence (P37058 whole entry): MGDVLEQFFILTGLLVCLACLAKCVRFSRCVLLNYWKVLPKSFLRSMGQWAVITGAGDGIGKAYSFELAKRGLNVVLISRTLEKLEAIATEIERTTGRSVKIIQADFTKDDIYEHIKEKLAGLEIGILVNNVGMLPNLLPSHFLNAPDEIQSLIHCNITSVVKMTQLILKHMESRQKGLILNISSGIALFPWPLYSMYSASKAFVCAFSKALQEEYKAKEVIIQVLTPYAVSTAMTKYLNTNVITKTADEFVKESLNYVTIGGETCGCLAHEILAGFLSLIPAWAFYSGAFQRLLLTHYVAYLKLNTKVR
Put plainly: Inhibition of recombinant 17beta-HSD3 (unknown origin) assessed as conversion of androstenedione to testosterone after 90 mins by scintillation counting analysis.

Series [13] in a line: Aqueous solubility of crystalline form of compound in phosphate buffer at pH 7.4 after 24 hrs by LC-UV analysis. Format: physicochemical.
In another series the target is Phosphodiesterase 4 (Homo sapiens, UniProt P27815+Q08499+Q07343+Q08493). Put plainly: Inhibition of PDE4 (unknown origin). Format: protein assay.

In general, IC50 refers to the concentration that gives 50% inhibition. One may read the inhibition as the relative decrease from the control value, in per cent. The term inhibition in vivo denotes the percentage by which the read-out fell short of the control. A word on the half-life: it is how long it takes for the measured level to halve. The logD is lipophilicity at a set pH, counting ionised and neutral species. What is called Papp A→B is how fast a substance crosses the layer from the apical side. As a reminder, the solubility (thermodynamic) is solubility found after equilibrating the solid with the medium.

Voltage-gated inwardly rectifying potassium channel KCNH2, sequence (Q12809 whole entry): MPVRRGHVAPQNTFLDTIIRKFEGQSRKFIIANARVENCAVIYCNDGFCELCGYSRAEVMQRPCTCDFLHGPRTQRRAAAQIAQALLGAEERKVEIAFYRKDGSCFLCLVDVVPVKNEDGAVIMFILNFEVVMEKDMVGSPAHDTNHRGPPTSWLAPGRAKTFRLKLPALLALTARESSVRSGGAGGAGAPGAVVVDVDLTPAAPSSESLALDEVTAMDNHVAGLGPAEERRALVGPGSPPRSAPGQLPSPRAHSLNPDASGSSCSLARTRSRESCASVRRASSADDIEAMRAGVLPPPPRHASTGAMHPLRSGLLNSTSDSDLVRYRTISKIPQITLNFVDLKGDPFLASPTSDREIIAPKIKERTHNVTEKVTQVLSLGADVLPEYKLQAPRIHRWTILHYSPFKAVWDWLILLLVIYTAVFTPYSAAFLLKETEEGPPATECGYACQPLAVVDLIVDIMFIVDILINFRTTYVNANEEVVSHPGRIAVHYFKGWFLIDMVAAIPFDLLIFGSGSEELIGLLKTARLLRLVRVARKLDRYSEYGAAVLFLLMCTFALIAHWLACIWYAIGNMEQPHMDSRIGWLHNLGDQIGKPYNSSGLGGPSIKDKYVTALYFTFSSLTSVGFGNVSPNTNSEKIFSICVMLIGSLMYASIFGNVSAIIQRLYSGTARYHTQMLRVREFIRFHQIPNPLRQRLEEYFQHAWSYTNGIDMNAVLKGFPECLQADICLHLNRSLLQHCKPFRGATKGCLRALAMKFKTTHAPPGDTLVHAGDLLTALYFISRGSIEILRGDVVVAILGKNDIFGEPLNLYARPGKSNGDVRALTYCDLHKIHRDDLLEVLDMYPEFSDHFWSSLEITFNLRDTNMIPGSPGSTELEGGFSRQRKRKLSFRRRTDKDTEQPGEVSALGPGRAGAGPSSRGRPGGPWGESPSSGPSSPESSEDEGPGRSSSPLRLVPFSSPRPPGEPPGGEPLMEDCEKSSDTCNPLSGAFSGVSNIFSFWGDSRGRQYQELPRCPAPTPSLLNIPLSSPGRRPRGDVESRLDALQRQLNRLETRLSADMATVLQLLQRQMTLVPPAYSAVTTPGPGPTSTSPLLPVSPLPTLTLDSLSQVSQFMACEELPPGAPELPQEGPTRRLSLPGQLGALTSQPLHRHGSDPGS
11-beta-hydroxysteroid dehydrogenase 1, sequence (P16232 whole entry): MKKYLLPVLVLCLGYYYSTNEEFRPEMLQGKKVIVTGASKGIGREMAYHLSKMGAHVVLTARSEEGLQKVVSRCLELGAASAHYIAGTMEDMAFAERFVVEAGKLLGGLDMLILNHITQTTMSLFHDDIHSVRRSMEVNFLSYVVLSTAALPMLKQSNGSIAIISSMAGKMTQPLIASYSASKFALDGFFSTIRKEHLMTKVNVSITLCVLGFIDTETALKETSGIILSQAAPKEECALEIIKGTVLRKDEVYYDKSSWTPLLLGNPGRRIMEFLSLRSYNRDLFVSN

With `CSc1nc(N2C[C@@H]3[C@H](C2)[C@H]3C(=O)O)ccc1C(=O)NC12CC3CC(CC(C3)C1)C2`, the IC50 in series [1] was more than 30 µM; in series [3], 0.082 µM; in series [7] it was 0.02 µM; in [12], 25 µM; on Phosphodiesterase 4, 30 µM. The outcome in series [2] and in series [8] was inactive. Besides, the inhibition at 10 µM at CYP2D6 and against CYP2C19 was less than 25% in each case. Testing at 30 mg/kg in the series with Mus musculus gave an inhibition in vivo of 50%. Besides, the Activity result in the series on Salmonella typhimurium is reported as “Non-toxic”. The half-life in series [4] is 15 h; in series [10], 2.5 h. Besides, the Vd in series [5] stood at 0.7 L/kg. In series [6], the log distribution coefficient (logD) at 0.5 h amounted to 2.1. In addition, the Stability in series [9] was 94%. In addition, the apical-to-basolateral permeability (Papp A→B) at 10 µM in series [11] came out at 21 ×10⁻⁶ cm/s. This compound also registered a solubility (thermodynamic) at 24 h in [13] of more than 3000 µM.
